Laboratory results: patent US20160022818A1, “PHARMACEUTICAL FORMULATION COMPRISING LIPASE INHIBITOR HAVING INCREASED DISSOLUTION RATE AND REDUCED SIDE EFFECTS, AND METHOD FOR PREPARING SAME” (UNIVERSITY-INDUSTRY FOUNDATION, YONSEI UNIVERSITY, priority 2013, published 2016)

How the values were obtained:
[1] = Comparative dissolution test; assay type: physicochemical; details: 900 ml 1% sodium lauryl sulfate, paddle 75 rpm, HPLC-UV
Method: A comparative dissolution test was performed on the compositions prepared by Examples 1 to 3 and on the compositions prepared by Comparative Examples 1 and 2.

[2] = system: triglyceride levels in blood; experiment: Measurement of triglyceride levels in blood by using SD-rat model; assay type: in vivo; details: SD-rats, oral 2.5 mg orlistat per kg
Method: Using 7-week old SD-rats (Samtaco Bio Korea Inc.), 1 ml of an olive oil (Samchun Pure Chemical Co., Ltd., Korea) was administered to each group and a drug suspended in a 0.25% HPMC (hydroxypropylmethyl cellulose) solution (Shin-Etsu chemical, Japan) was orally administered to the rats (corresponds to 2.5 mg of orlistat per kg of the body weight). The control group was administered with distilled water instead of the drug suspension. The blood of rats was collected for a fixed time interval, the triglyceride levels in the blood were measured by Cleantech TG-S of Asan Pharmaceutical, and, with the triglyceride level in the blood before testing used as a standard, changes in triglyceride levels in the blood after administration of an olive oil and drugs were plotted in FIG. 4 and Table 4.

[3] = Oily leakage test using SD-rat model; assay type: in vivo; details: of 26 SD-rats; 0.5 ml olive oil, oral 5 mg orlistat per kg, 6 hours later
Method: 7-week old SD-rats were used, 0.5 ml of an olive oil was administered for each group, and a drug was suspended in a 0.25% HPMC solution to be orally administered to the rats (corresponds to 5 mg of orlistat per kg of the body weight). 6 hours later, the evaluation was assessed through the number of rats having oily leakage from their anuses.

Dissolution rate at 10 minutes ([1]; Table 1): 7.0% | Dissolution rate at 10 minutes ([1]; Table 3, various porous adsorbents): 7.0% | Population having oily leakage [3]: 17 rats
Structure (SMILES): CCCCCCCCCCC[C@@H](C[C@@H]1OC(=O)[C@H]1CCCCCC)OC(=O)[C@H](CC(C)C)NC=O [Comparative Example 1, orlistat]
AUC0->12 h (triglyceride level in blood) ([2]; 1 ml olive oil): 648.0 ± 203.2 mg·h/dL | Cmax (triglyceride level in blood) ([2]; 1 ml olive oil): 140.7 ± 64.1 mg/dL | Triglyceride level in blood (words, FIG. 4) ([2]; olive oil): did not show an increase
